Assay results as given in ChEMBL document CHEMBL4665641, “Lead optimization and efficacy evaluation of quinazoline-based BET family inhibitors for potential treatment of cancer and inflammatory diseases” (Bioorg Med Chem Lett, 2019).

Assays:
Kasumi 1 [1] = experiment: Antitumor activity against human Kasumi-1 cells xenografted in CB17 SCID mouse assessed as tumor volume at 10 mg/kg, po QD for 29 days (reference value: 1734 +/- 220 mm3); format: functional; conditions: time 29 day
CYP3A4 = CYP3A4 (Homo sapiens, UniProt P08684); experiment: Inhibition of human CYP3A4 at 10 uM using midazolam as substrate relative to control; format: ADME; conditions: probe midazolam
Chain of CYP3A4 (P08684 whole entry, the tested form may be a part): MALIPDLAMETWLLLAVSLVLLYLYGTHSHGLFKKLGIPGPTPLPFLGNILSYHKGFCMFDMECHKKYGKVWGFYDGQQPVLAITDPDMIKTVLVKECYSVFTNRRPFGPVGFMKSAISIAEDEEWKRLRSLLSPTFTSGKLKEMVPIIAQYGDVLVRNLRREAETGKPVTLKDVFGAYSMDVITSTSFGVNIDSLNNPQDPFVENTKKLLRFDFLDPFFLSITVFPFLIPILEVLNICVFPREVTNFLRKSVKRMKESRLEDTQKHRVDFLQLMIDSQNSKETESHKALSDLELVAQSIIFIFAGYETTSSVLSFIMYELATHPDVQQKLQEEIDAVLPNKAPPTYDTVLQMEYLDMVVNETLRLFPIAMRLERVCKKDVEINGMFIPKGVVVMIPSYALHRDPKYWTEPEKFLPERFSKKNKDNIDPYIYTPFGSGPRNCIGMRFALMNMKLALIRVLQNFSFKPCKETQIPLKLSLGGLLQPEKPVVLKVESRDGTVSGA

[2] = target: Bromodomain-containing protein 2 (Homo sapiens, UniProt P25440); experiment: Binding affinity to human partial length BRD2 (BD1) (K71 to N194 residues) expressed in bacterial expression system by BROMOscan assay
Chain of Bromodomain-containing protein 2 (P25440 whole entry, the tested form may be a part): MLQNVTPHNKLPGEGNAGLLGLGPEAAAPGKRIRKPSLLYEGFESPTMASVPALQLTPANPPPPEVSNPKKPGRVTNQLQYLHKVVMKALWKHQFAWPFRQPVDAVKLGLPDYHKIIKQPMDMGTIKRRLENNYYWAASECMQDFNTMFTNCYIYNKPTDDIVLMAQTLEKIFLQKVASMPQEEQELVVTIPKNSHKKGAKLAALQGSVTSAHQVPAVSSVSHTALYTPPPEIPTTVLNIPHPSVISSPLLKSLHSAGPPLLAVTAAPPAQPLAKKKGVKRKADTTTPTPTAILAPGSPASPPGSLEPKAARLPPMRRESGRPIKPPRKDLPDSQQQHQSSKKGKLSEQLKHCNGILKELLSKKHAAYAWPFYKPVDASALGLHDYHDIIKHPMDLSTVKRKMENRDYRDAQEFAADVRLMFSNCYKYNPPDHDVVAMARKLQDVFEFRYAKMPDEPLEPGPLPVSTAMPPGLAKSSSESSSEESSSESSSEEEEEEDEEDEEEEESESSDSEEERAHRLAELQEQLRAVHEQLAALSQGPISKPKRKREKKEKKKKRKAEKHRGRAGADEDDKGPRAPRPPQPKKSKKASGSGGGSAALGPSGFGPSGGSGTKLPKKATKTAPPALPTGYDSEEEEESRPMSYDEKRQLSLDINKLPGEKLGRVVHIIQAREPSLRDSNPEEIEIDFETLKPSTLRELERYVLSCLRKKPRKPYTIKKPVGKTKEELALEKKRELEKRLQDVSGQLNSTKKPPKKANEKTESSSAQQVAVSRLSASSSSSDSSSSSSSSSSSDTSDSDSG

Kasumi 1 [3] = experiment: Antitumor activity against human Kasumi-1 cells xenografted in CB17 SCID mouse assessed as tumor weight at 10 mg/kg, po QD for 29 days (reference value: 2.1+/- 0.3 g); format: functional; conditions: time 29 day

Cc1noc(C)c1-c1ccc2nc(-c3cnn(CC(C)(C)O)c3)nc(N3CCOC[C@@H]3c3ccccc3)c2c1
Activity (Kasumi 1 [1]): 1036 mm3
inhibition at 10 µM (CYP3A4): < 50%
Kd [2]: 0.045 µM
Activity (Kasumi 1 [3]): 1.22 g
